From BindingDB's records for PubMed 30125723 (n/a, 2018)

Molecular target: alpha-glucosidase (Saccharomyces cerevisiae)
Test: Inhibition of Saccharomyces cerevisiae alpha-glucosidase activity using pNPG as substrate

IC50: 63 nM
SMILES: O=C(CO)CCC(=O)c1nc(C(=O)O)cc2c1[nH]c1ccccc12
